Measured values reported in paper PMC1847840, “Structural and Chemical Profiling of the Human Cytosolic Sulfotransferases” (PLoS Biology, 2007).
Values belong to the compound of their own block, whether it stands above or below them.

Tests used:
SULT1A1 = molecular target: T1, SULT1A1 (Homo sapiens, UniProt P50225); experiment: thermal aggregation shift (StarGazer static light scattering); type: binding; settings: 1 mM compound, pH 7.5, with saturating PAP
T1 construct: purified recombinant; clone and tag not described
T1 sequence (P50225 whole entry): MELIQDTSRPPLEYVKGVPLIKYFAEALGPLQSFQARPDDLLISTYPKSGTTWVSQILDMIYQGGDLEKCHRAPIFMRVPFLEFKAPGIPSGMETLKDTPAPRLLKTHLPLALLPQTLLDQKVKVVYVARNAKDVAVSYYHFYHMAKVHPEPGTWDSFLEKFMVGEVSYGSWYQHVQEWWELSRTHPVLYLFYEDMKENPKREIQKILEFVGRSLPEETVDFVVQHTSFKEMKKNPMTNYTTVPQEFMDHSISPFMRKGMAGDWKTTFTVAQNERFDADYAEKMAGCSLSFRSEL
Text: thermal aggregation shift (StarGazer static light scattering) on SULT1A1

SULT1C3 = molecular target: T2, SULT1C3 (Homo sapiens, UniProt Q6IMI6); experiment: as above; type: binding; settings: 1 mM compound
T2 construct: recombinant, modified pET28a-LIC, bacterial expression; extra Gly-Ser at N-terminus
T2 sequence (Q6IMI6 whole entry): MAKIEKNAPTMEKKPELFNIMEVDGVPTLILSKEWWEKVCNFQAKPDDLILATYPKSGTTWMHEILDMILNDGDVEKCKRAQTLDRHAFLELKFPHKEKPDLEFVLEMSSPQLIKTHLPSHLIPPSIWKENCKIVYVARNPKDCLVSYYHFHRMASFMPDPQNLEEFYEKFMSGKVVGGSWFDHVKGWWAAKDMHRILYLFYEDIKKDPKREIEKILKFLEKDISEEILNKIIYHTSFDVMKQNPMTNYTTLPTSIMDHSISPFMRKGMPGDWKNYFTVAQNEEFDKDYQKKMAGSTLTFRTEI

SULT1C2 [1] = molecular target: T3, SULT1C2 (Homo sapiens, UniProt O75897); experiment: as above; type: binding; settings: 1 mM compound, pH 7.5, no other ligand
T3 construct: gene SULT1C4; recombinant, modified pET28a-LIC, bacterial expression; extra Gly-Ser at N-terminus
T3 sequence (O75897 whole entry): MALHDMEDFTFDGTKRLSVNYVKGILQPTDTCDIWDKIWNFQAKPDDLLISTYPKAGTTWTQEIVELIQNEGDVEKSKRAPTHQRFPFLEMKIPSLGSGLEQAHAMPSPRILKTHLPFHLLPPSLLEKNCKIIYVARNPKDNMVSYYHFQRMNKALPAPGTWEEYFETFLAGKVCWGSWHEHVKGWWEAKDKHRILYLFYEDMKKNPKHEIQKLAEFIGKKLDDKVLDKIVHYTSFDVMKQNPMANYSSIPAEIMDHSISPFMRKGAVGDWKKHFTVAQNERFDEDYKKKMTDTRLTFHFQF
Text: thermal aggregation shift (StarGazer static light scattering) on SULT1C2

SULT1B1 [2] = molecular target: T4, SULT1B1 (Homo sapiens, UniProt O43704); experiment: as above; type: binding; settings: 1 mM compound
T4 construct: recombinant, modified pET28a-LIC, bacterial expression; extra Gly-Ser at N-terminus
T4 sequence (O43704 whole entry): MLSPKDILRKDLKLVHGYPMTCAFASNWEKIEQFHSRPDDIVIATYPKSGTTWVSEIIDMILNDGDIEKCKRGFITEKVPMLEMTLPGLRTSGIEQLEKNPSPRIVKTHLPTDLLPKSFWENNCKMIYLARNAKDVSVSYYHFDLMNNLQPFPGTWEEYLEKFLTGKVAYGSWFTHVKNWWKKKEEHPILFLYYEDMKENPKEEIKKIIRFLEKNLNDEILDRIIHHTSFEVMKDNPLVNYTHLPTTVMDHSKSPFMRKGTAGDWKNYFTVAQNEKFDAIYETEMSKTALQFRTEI
Text: thermal aggregation shift (StarGazer static light scattering) on SULT1B1

SULT1C1 = molecular target: T5, SULT1C1 (Homo sapiens, UniProt O00338); experiment: as above; type: binding; settings: 1 mM compound
T5 construct: gene SULT1C2; recombinant, modified pET28a-LIC; extra Gly-Ser at N-terminus
T5 sequence (O00338 whole entry): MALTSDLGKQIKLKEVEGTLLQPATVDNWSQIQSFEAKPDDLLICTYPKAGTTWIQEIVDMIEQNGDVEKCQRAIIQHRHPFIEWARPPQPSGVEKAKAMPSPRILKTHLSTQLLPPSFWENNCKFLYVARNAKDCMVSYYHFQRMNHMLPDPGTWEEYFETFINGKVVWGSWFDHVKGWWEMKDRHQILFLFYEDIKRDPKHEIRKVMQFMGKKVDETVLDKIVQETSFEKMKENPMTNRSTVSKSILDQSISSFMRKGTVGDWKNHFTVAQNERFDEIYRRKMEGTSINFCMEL
Text: thermal aggregation shift (StarGazer static light scattering) on SULT1C1

SULT1E1 = molecular target: T6, SULT1E1 (Homo sapiens, UniProt P49888); experiment: as above; type: binding; settings: 1 mM compound, pH 7.5, with saturating PAP
T6 construct: purified recombinant; clone and tag not described
T6 sequence (P49888 1-294): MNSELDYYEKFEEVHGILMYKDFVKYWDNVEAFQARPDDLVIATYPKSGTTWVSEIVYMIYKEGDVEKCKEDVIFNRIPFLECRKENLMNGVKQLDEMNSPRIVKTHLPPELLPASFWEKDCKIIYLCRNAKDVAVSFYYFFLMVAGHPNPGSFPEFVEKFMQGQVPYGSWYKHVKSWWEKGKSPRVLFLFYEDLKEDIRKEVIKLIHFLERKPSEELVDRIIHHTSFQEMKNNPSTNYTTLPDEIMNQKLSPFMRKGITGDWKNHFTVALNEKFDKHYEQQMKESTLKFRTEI
Text: thermal aggregation shift (StarGazer static light scattering) on SULT1E1

SULT1A3 = molecular target: T7, SULT1A3 (Homo sapiens, UniProt P0DMM9); experiment: as above; type: binding; settings: 1 mM compound, pH 7.5, with saturating PAP
T7 construct: purified recombinant; clone and tag not described; SULT1A4 encodes the same protein
T7 sequence (P0DMM9 whole entry): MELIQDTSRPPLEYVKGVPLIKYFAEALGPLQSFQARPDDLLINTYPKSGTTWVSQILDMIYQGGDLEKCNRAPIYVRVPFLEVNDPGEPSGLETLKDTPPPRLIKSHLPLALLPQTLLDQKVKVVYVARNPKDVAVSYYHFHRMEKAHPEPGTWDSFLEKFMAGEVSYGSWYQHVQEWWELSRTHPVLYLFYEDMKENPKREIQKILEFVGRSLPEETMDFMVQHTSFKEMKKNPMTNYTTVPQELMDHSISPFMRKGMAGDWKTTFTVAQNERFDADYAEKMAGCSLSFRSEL
Text: thermal aggregation shift (StarGazer static light scattering) on SULT1A3

SULT4A1 = molecular target: T8, SULT4A1 (Homo sapiens, UniProt Q9BR01); experiment: as above; type: binding; settings: 1 mM compound, pH 7.5, without PAP
T8 construct: recombinant, modified pET28a-LIC, bacterial expression; extra Gly-Ser at N-terminus
T8 sequence (Q9BR01 1-284): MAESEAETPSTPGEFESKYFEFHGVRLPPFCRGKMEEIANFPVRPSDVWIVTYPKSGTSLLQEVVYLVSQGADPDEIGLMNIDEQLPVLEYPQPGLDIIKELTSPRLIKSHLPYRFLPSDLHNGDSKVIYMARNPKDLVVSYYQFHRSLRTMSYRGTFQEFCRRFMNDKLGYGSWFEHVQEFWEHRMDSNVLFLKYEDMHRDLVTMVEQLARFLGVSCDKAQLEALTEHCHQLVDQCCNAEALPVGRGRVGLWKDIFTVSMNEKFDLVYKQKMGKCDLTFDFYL
Text: thermal aggregation shift (StarGazer static light scattering) on SULT4A1

SULT2A1 = molecular target: T9, SULT2A1 (Homo sapiens, UniProt Q06520); experiment: as above; type: binding; settings: 1 mM compound, pH 7.5, without PAP
T9 construct: purified recombinant; clone and tag not described
T9 sequence (Q06520 1-285): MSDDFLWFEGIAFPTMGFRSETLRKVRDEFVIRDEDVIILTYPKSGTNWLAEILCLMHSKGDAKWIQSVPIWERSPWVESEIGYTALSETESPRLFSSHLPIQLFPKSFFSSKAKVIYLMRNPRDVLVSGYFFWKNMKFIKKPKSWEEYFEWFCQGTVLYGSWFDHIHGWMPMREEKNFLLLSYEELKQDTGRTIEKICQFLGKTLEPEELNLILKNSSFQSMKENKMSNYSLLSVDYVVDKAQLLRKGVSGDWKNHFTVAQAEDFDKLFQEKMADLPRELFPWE
Text: thermal aggregation shift (StarGazer static light scattering) on SULT2A1

SULT1C2 [3] = molecular target: T3, SULT1C2; experiment: X-ray crystal structure, […] Å; type: binding; settings: ternary complex with PAP; substrate pocket
SULT1B1 [4] = molecular target: T4, SULT1B1; experiment: HPLC PAPS to PAP conversion, inhibition of sulfotransferase activity; type: biochemical; settings: 1-naphthol as substrate; PCP 5 to 312 μM; pH 7.5, 37 °C

Structure (SMILES): O=[N+]([O-])c1cc(Cl)c(O)c(Cl)c1 [2,6-dichloro-4-nitrophenol]
dTagg (SULT1A1): 8.7 °C

Structure (SMILES): CCc1ccccc1O [2-ethylphenol]
dTagg (SULT1C3; pH 7.5, with saturating PAP): 2.1 °C

Structure (SMILES): O=C(NN=Cc1coc2c(Cl)cc(Cl)cc2c1=O)c1cc(Br)c(O)c(Br)c1 [DBHD, 3,5-dibromo-4-hydroxy-benzoic acid (6,8-dichloro-4-oxo-4H-chromen-3-ylmethylene) hydrazide]
dTagg (SULT1B1 [2]; pH 7.5, without PAP): 11.4 °C

Structure (SMILES): NCCc1ccc(O)c(O)c1 [dopamine]
dTagg (SULT1A3): 2.3 °C

Structure (SMILES): Oc1c(Cl)c(Cl)c(Cl)c(Cl)c1Cl [pentachlorophenol]
dTagg (SULT1B1 [2]; pH 7.5, with saturating PAP): 8.9 °C
X-ray crystal structure, 1.8 Å (SULT1C2 [3]): we determined the structure of SULT1C2 bound to PAP and PCP
dTagg (SULT1A1): 10.2 °C
% inhibition (SULT1B1 [4]): PCP and DBHD were strong inhibitors of SULT1B1

Structure (SMILES): O=c1c(O)c(-c2ccc(O)c(O)c2)oc2cc(O)cc(O)c12 [quercetin dihydrate]
dTagg (SULT1C1; pH 7.5, without PAP): 31 °C

Structure (SMILES): Oc1ccc(/C=C/c2cc(O)cc(O)c2)cc1 [resveratrol]
dTagg (SULT1C1; pH 7.5, without PAP): 6.6 °C

Structure (SMILES): C[C@H]1CCC[C@H](O)CCC/C=C/c2cc(O)cc(O)c2C(=O)O1 [α-zearalenol]
dTagg (SULT1C3; pH 7.5, with saturating PAP): 2.8 °C

Next, values leading:

dTagg (SULT1C3; pH 7.5, no other ligand): 6.5 °C
dTagg (SULT1C2 [1]): 6.4 °C
dTagg (SULT1B1 [2]; pH 7.5, no other ligand): 7.8 °C
dTagg (SULT1C1; pH 7.5, no other ligand): 4.5 °C
Structure (SMILES): Nc1ncnc2c1ncn2[C@@H]1O[C@H](COP(=O)(O)O)[C@@H](OP(=O)(O)O)[C@H]1O [3′-phosphoadenosine 5′-phosphate]

dTagg (SULT1E1): 4.3 °C
Structure (SMILES): C#C[C@]1(O)CC[C@H]2[C@@H]3CCc4cc(O)ccc4[C@H]3CC[C@@]21C [17α-ethinylestradiol]

dTagg (SULT4A1): 16 °C
Structure (SMILES): CNC[C@H](O)c1ccc(O)c(O)c1 [epinephrine]

dTagg (SULT4A1): 18 °C
Structure (SMILES): CC(C)NCC(O)c1ccc(O)c(O)c1 (stereo not shown) [isoprenaline]

dTagg (SULT2A1): 4.4 °C
Structure (SMILES): C[C@H](CCC(=O)O)[C@H]1CC[C@H]2[C@@H]3CC[C@@H]4C[C@H](O)CC[C@]4(C)[C@H]3CC[C@]12C [lithocholic acid]
